From ChEMBL document CHEMBL1629642, “In vitro efficacy of ST246 against smallpox and monkeypox” (Antimicrob Agents Chemother, 2009)
The source made the active and inactive calls. The calls are words filed in the database; no cut-off is given here.

Tests used:
Monkeypox virus = test: Antiviral activity against Monkeypox virus V78-I-3945 infected in african green monkey BSC-40 cells at 0.05 to 0.5 uM by IHC staining-based comet tail reduction assay; format: functional, organism-based
Variola virus [1] = test: Antiviral activity against Variola virus BSH74-sol infected in african green monkey BSC-40 cells at 0.015 uM assessed as reduction in virus-induced cytopathic effect; format: functional, organism-based
Variola virus [2] = test: microbe, parasite or virus in culture; details: SOM77-ali, BSC-40

O=C(NN1C(=O)[C@@H]2[C@@H]3C=C[C@@H]([C@H]4C[C@@H]34)[C@@H]2C1=O)c1ccc(C(F)(F)F)cc1 [TECOVIRIMAT]
Activity (Monkeypox virus): Active | Activity (Variola virus [1]): Active | EC50 (Variola virus [2]): 28 nM
